For 43 compounds, IC50 results are on record in patent US9550763B2, “Heterocyclic ring and carbocyclic derivative” (Shionogi & Co., Ltd., priority 2012, dated 2017).

Sequence of human P2X3 receptor (P56373 whole entry): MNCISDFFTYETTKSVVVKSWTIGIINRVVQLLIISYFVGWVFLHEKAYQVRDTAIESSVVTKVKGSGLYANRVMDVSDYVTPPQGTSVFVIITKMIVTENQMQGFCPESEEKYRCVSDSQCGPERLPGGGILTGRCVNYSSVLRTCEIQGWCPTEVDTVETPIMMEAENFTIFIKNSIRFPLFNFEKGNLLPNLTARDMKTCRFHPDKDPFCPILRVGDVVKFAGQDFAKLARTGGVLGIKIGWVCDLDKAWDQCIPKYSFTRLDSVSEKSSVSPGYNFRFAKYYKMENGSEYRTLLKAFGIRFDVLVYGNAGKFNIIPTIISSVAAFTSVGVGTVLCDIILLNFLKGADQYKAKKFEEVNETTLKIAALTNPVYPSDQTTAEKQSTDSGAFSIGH

One experiment has as its target human P2X3 receptor (Homo sapiens (Human), UniProt P56373). In words: Evaluation of human P2X3 receptor inhibitory activity (Test Example 1-2, FLIPR 384, 384-well, 150 nM ATP). The experiment is classed as cell-based. The conditions noted are these: C6BU-1 cell transfected with human P2X3 receptor gene; method of Test Example 1-2 (compounds I-301 to I-483); read-out: IC50 (human P2X3 receptor inhibitory activity). On the procedure: Stably expressing cell line (C6BU-1 cell transfected with human P2X3 receptor gene (GenBank accession number Y07683) was used. The cells were seeded in a 384-well microtiter plate at a concentration of 3000 cells/well and cultured in the medium (7.0% fetal bovine serum, 7.0% horse serum, 1% antibiotic and antifungal in DMEM) for one day at 37° C. under 5% carbon dioxide atmosphere. The medium was replaced with 4 μM Fluo-3-AM solution (20 mM HEPES, […], 5.27 mM KCl, 0.9 mM MgCl2, 1.26 mM CaCl2, 5.6 mM D-glucose, 2.5 mM probenecid, 0.5% BSA, and 0.04% Pluronic F-127, pH 7.5) and incubated at 37° C. under 5% dioxide carbon atmosphere for one hour. The plate was washed with washing buffer (20 mM HEPES, 137 mM NaCl, 5.27 mM KCl, 0.9 mM MgCl2, 1.26 mM CaCl2, 5.6 mM D-glucose, 2.5 mM probenecid, pH7.5), and each well was added with 20 μL of this buffer. The plate was placed in High-Throughput Screening System FLIPR 384 (Molecular Device Co.). Measurement of fluorescence intensity by FLIPR 384 was started, and 20 μL of DMSO solutions containing different concentrations of the test compound as prepared by dilution with dilution buffer (20 mM HEPES, 137 mM NaCl, 5.27 mM KCl, 0.9 mM MgCl2, 1.26 mM CaCl2, 5.6 mM D-glucose, 2.5 mM probenecid, 0.1% Pluronic F-127, pH 7.5) were dispensed to each well through the built-in automatic dispenser. Five minutes after, 150 nM ATP solution (25 μL) prepared by dilution with the dilution buffer was dispensed through the built-in automatic dispenser, and the measurement of fluorescence intensity was continued for 4 min. For each well, the specific maximum fluorescence intensity was calculated as the ratio of the maximum fluorescence intensity after addition of the ATP solution to the fluorescence intensity at the starting of the measurement. The 50% inhibitory concentration (IC50) was calculated under the assumption that the specific maximum fluorescence intensity without test compound is 0% inhibition and that the specific maximum fluorescence intensity when the dilution buffer was added in place of ATP solution is 100% inhibition, to evaluate the inhibitory activity of the test compound. The specific maximum fluorescence intensity and IC50 were calculated using Spotfire (Science & Technology Systems, Inc.)
The data of the compounds I-001 to I-300 are the results by the method mentioned in Test Example 1-1, and the data of the compounds I-301 to I-483 are the results by the method mentioned in Test Example 1-2.
As to `O=C(O)c1cn(Cc2ccc(Cl)cc2)c2cc(Nc3ccc(Oc4ccc(F)cn4)cc3)ccc2c1=O` [Compound I-461], the IC50 – broadly, the point on the concentration scale where inhibition reaches its midpoint – was less than 30000 nM.

Still in this experiment, the particulars now being: human P2X3 receptor in C6BU-1 cells; Test Example 1-2 (compounds I-301 to I-483); read-out: P2X3 IC50.
Regarding `C[C@H](NC(=O)c1cn(Cc2ccc(Cl)cc2)c(Nc2ccc(Oc3cccc(F)n3)cc2)nc1=O)C(N)=O` [Compound I-381], the 50% inhibitory concentration (IC50) was found to be 4 nM.

On to `O=C(Nc1ccon1)c1cn(Cc2ccc(Cl)cc2)c(Nc2ccc(Oc3cccc(F)n3)cc2)nc1=O` [Compound I-372], for which the IC50 came out at 51 nM.

As for `CCC(=O)Nc1c[nH]/c(=N\c2ccc(Oc3cccc(CCC(=O)OC)c3)cc2)n(Cc2ccc(Cl)cc2)c1=O` [Compound I-330], the IC50 is 366 nM.

`O=C(Nc1cc[nH]n1)c1cn(Cc2ccc(Cl)cc2)c(Nc2ccc(Oc3cccc(F)n3)cc2)nc1=O` [Compound I-421]: the IC50 was found to be 17 nM.

For the compound `CCOC(=O)c1cnc(Oc2ccc(/N=c3\[nH]cc(-c4nc(C)no4)c(=O)n3Cc3ccc(Cl)cc3)cc2)s1` [Compound I-311], the IC50 was 31 nM.

For `C#CCNC(=O)c1c[nH]/c(=N\c2ccc(Oc3ccc(F)cn3)cc2)n(Cc2ccc(Cl)cc2)c1=O` [Compound I-427], the IC50 is 5 nM.

For the compound `NC(=O)[C@H](CO)NC(=O)c1cn(Cc2ccc(Cl)cc2)c(Nc2ccc(Oc3cccc(F)n3)cc2)nc1=O` [Compound I-375], the IC50 stood at 4 nM.

Regarding `O=C(O)c1cccc(Oc2ccc(/N=c3\[nH]cc(-c4ccccc4)c(=O)n3Cc3ccc(Cl)cc3)cc2)n1` [Compound I-422], the IC50 was 3 nM.

As to `CCC(=O)Nc1c[nH]/c(=N\c2ccc(Oc3cc(C)cnn3)cc2)n(Cc2ccc(Cl)cc2)c1=O` [Compound I-433], the half-maximal inhibitory concentration (IC50) worked out at 99 nM.

With `CCOC(=O)c1cnc(Oc2ccc(/N=c3\[nH]cc(C(C)C)c(=O)n3Cc3ccc(Cl)cc3)cc2)s1` [Compound I-410], the 50% inhibitory concentration (IC50) came out at 626 nM.

As for `NC(=O)c1noc(-c2c[nH]/c(=N\c3ccc(Oc4ccon4)cc3)n(Cc3ccc(Cl)cc3)c2=O)n1` [Compound I-441], the half-maximal inhibitory concentration (IC50) was 69 nM.

Regarding `COc1cn(Cc2ccc(Cl)cc2)c(Nc2ccc(Oc3cccc(C(N)=O)n3)cc2)nc1=O` [Compound I-403], the IC50 worked out at 243 nM.

As to `CC(c1ccc(Cl)cc1)n1cc(C(=O)NC2CCOCC2)c(=O)nc1Nc1ccc(Oc2cccc(F)n2)cc1` (stereo not shown) [Compound I-358], the concentration for half-maximal inhibition (IC50) was 23 nM.

Turning to `CCOC(=O)c1noc(-c2c[nH]/c(=N\c3ccc(Oc4ccon4)cc3)n(Cc3ccc(Cl)cc3)c2=O)n1` [Compound I-437], the IC50 amounted to 124 nM.

Regarding `CC(C)CNC(=O)c1cn(Cc2ccc(Cl)cc2)c(Nc2ccc(Oc3cccc(F)n3)cc2)nc1=O` [Compound I-374], the half-maximal inhibitory concentration (IC50) turned out to be 46 nM.

As to `COC(=O)[C@H](CO)NC(=O)c1c[nH]/c(=N\c2ccc(Oc3ccon3)cc2)n(Cc2ccc(Cl)cc2)c1=O` [Compound I-446], the IC50 stood at 47 nM.

With `COC(=O)[C@H](C)[C@H](C)n1c(=O)cc(Nc2ccc(Oc3ccc(F)nc3)c(C)n2)n(Cc2ccc(Cl)cc2)c1=O` [Compound I-338], the IC50 came out at 9 nM.

In the case of `O=C(NC1CCNC1=O)c1cn(Cc2ccc(Cl)cc2)c(Nc2ccc(Oc3cccc(F)n3)cc2)nc1=O` (stereo not shown) [Compound I-389], the IC50 came to 10 nM.

For the compound `COC(=O)C(C)(C)Cn1c(=O)cc(Nc2ccc(Oc3ccc(F)cn3)c(C)n2)n(C[C@H]2CC[C@H](C)CC2)c1=O` [Compound I-444], the half-maximal inhibitory concentration (IC50) stood at 9 nM.

Consider `Cc1noc(-c2c[nH]/c(=N\c3ccc(Oc4ncc(C(=O)O)s4)cc3)n(Cc3ccc(Cl)cc3)c2=O)n1` [Compound I-314], for which the 50% inhibitory concentration (IC50) came to 10 nM.

On to `Cc1c[nH]c2cc(Nc3ncc(NC(=O)C4CCOCC4)c(=O)n3Cc3ccc(Cl)cc3)ccc12` [Compound I-413], for which the IC50 stood at 897 nM.

On to `C[C@@H](C(=O)O)[C@H](C)n1c(=O)cc(Nc2ccc(Oc3ccc(F)cn3)cc2)n(Cc2ccc(Cl)cc2)c1=O` [Compound I-325], for which the IC50 stood at 11 nM.

Consider `CCC(=O)Nc1c[nH]/c(=N\c2ccc(Oc3ccc(C(=O)OC)nn3)cc2)n(Cc2ccc(Cl)cc2)c1=O` [Compound I-305], for which the IC50 is 5 nM.

`CCOc1cn(Cc2ccc(Cl)cc2)c(Nc2ccc(Oc3cccc(C#N)n3)cc2)nc1=O` [Compound I-429]: the IC50 is 441 nM.

As for `N#CCNC(=O)c1c[nH]/c(=N\c2ccc(Oc3ccon3)cc2)n(Cc2ccc(Cl)cc2)c1=O` [Compound I-425], the IC50 worked out at 21 nM.

In the case of `CCCn1c(=O)c(F)c(Nc2ccc(Oc3cccc(C#N)n3)c(C)n2)n(Cc2ccc(Cl)cc2)c1=O` [Compound I-301], the IC50 is 163 nM.

For `CCCn1c(=O)cc(Nc2ccc(Oc3cccc(C(=O)O)c3)c(C)n2)n(Cc2ccc(C)cc2)c1=O` [Compound I-474], the IC50 amounted to 5 nM.

Regarding `CC(C)c1c[nH]/c(=N\c2ccc(Oc3cccc(C#N)n3)cc2)n(Cc2ccc(Cl)cc2)c1=O` [Compound I-321], the IC50 amounted to 150 nM.

Consider `C=CCNC(=O)c1c[nH]/c(=N\c2ccc(Oc3ccon3)cc2)n(Cc2ccc(Cl)cc2)c1=O` [Compound I-450], for which the IC50 is 21 nM.

For the compound `O=C(NCc1ccccc1)c1c[nH]/c(=N\c2ccc(Oc3ccon3)cc2)n(Cc2ccc(Cl)cc2)c1=O` [Compound I-451], the IC50 stood at 104 nM.

Turning to `CC(C)n1ccc(Nc2ccc(Oc3cccc(C(=O)O)n3)cc2)c(Cc2ccc(Cl)cc2)c1=O` [Compound I-466], the IC50 was 597 nM.

In the case of `Cn1ccc(NC(=O)c2cn(Cc3ccc(Cl)cc3)c(Nc3ccc(Oc4cccc(F)n4)cc3)nc2=O)n1` [Compound I-378], the IC50 turned out to be 20 nM.

Consider `O=C(NCC1CCCCO1)c1cn(Cc2ccc(Cl)cc2)c(Nc2ccc(Oc3cccc(F)n3)cc2)nc1=O` (stereo not shown) [Compound I-388], for which the IC50 is 29 nM.

As for `CC1(NC(=O)c2cn(Cc3ccc(Cl)cc3)c(Nc3ccc(Oc4cccc(F)n4)cc3)nc2=O)CCOCC1` [Compound I-385], the IC50 was found to be 16 nM.

Take `O=C(NCC1COCCO1)c1cn(Cc2ccc(Cl)cc2)c(Nc2ccc(Oc3cccc(F)n3)cc2)nc1=O` (stereo not shown) [Compound I-379]: the IC50 came out at 96 nM.

With `C#CCNC(=O)c1c[nH]/c(=N\c2ccc(Oc3cccc(F)n3)cc2)n(Cc2ccc(Cl)cc2)c1=O` [Compound I-406], the concentration for half-maximal inhibition (IC50) was found to be 8 nM.

Take `CCOC(=O)c1cn(Cc2ccc(Cl)cc2)c(Nc2ccc(Oc3ccc(F)cn3)cc2)cc1=O` [Compound I-463, 1-(4-chloro-benzyl)-2-[4-(5-fluoro-2-pyridyloxy)phenylamino]-5-(ethoxycarbonyl)pyridin-4(1H)-one]: the IC50 turned out to be 26 nM.

With `COC(=O)[C@H](C)[C@H](C)n1c(=O)cc(Nc2ccc(Oc3ccc(F)cn3)cc2)n(Cc2ccc(Cl)cc2)c1=O` [Compound I-323], the IC50 was determined as 26 nM.

Turning to `C[C@@H](NC(=O)c1cn(Cc2ccc(Cl)cc2)c(Nc2ccc(Oc3cccc(F)n3)cc2)nc1=O)C(N)=O` [Compound I-443], the IC50 is 36 nM.

In the case of `COC(=O)c1cccc(Oc2ccc(/N=c3\[nH]cc(C(F)(F)F)c(=O)n3Cc3ccc(Cl)cc3)cc2)n1` [Compound I-471], the IC50 was 683 nM.

Turning to `Cc1nnc(-c2c[nH]/c(=N\c3ccc(Oc4cccc(C(=O)O)n4)cc3)n(Cc3ccc(Cl)cc3)c2=O)o1` [Compound I-328], the IC50 amounted to 11 nM.

For `Cc1noc(-c2c[nH]/c(=N\c3ccc(Oc4ccc(C(N)=O)nn4)cc3)n(Cc3ccc(Cl)cc3)c2=O)n1` [Compound I-315], the IC50 was determined as 10 nM.
